From patent US9839614B2, “Nanoparticle and polymer formulations for thyroid hormone analogs, antagonists, and formulations and uses thereof” (NANOPHARMACEUTICALS LLC, priority 2009, dated 2017) come the findings set out here.

The subject of assay [1] is SKN-SH/R cells. Nature of the assay: Senescence and apoptosis in drug resistant cells. It counts as cell-based. The note with it: 24 h. The method, then:
In FIG. 16A, SKN-SH/R cells were subjected to treatment doxorubicin (Dox) alone, Tetrac alone, or the combination of both for 24 h. Expression of p21/WAF1, cleaved caspase-3 (Cl-Casp-3) and beta action were measured by Western blot using specific antibodies.
FIG. 16B discloses the cells were seeded in 24 well plates and treated as mentioned above and expression of the senescence associated beta galactosidase (SA-β-Gal.) was assayed as described in the methods section.
FIG. 16C discloses the cells were seeded on cover slips and treated with the drugs as above for 24 h, after which they were fixed and stained with Hoechst and the percentage of positive cells graphed. The data represent average of 3 determinations±SE.

In assay [2] the test system is MDA-MB-231 cells gene expression. The assay can be described thus: RNA microarray of MDA-MB-231 cells (Example 16). It counts as cell-based, human. On the procedure:
MDA-MB-231 cells were purchased from ATCC (Manassas, Va.). Cells were maintained until use in DMEM that contained 10% FBS. The incubator conditions were 5% CO2/95% 02 and 37° C. The action of unmodified Tetrac and nanoparticulate on MDA-MB-231 cells was determined in a perfusion bellows cell culture system we have recently described for quantitating pharmaceutical agent pharmacodynamics in vitro. (See Lin et al., J Steroid Biochem Mol Biol 113: 182-188 (2009)). In brief, the cell culture system is a disposable bioreactor capable of high density cell culture for studies of anti-cancer drugs. Bellows-induced alternate flow of culture medium and air through porous matrices where cells are grown provides a relatively low shear, high aeration, foam-free culture environment. Medium level is raised and lowered to submerge and expose matrices to create a dynamic interface between air and media on the cell surface. Anchorage-dependent cells are grown on plastic flakes in the system. The flakes facilitate harvesting of whole cells for analysis. In the present studies, 5×10^7 cells were seeded in each perfusion flask and incubated at 37 C overnight. Flakes thereafter were sampled at regular intervals (FIG. 44), subjected to trypsinization and the harvested cells counted. When Tetrac or nanoparticulate Tetrac were initially added to the system, flasks contained 20-50×10^6 cells. Cell cultures were re-fed with 1% FBS-containing medium. Studies were carried out in duplicate flasks and replicated once. • Cell culture for harvesting of RNA. MDA-MB-231 cells were maintained in DMEM that was supplemented with 10% FBS in a 5% CO2/95% 02 air incubator at 37° C. For two days prior to exposure to Tetrac and nanoparticulate Tetrac, cells were maintained in 0.25% FBS that was stripped of estrogen and thyroid hormone. (See Lin et al., Biochemistry 42: 7571-7579 (2003)). • RNA microarray and analysis. Microarray analysis experiments were conducted as described previously. (See Glinsky et al., J Clin Invest 115: 1503-1521 (2005); Glinsky et al., J Clin Invest 113: 913-923 (2004); Glinsky et al., Clin Cancer Res 10: 2272-2283 (2004); and Glinsky et al., Mol Carcinog 37: 209-221 (2003)). […] Sample purity and integrity were verified with an Agilent BioAnalyzer (Santa Clara, Calif.). Expression analysis of 54,675 transcripts for each sample was by Affymetrix HG-U133A Plus 2.0 arrays. MAS5.0 software was used for data retrieval and analysis and concordant changes of gene expression in response to unmodified Tetrac and nanoparticulate Tetrac were defined by two-tailed t test at a threshold p value <0.01. Results • Effects of Tetrac and nanoparticulate Tetrac on MDA-MB-231 cell proliferation. […] Unmodified Tetrac at 10^−6M, introduced at day 0, inhibited cell proliferation by more than 30% by day 9. […] Actions shown here of nanoparticulate Tetrac on these pairs of genes are antithetic to tumor cell survival. […] A third pathway affected by the agents was that of the catenins. (See Takemaru et al., Nature 422: 905-909 (2003)). CBY1 is a potent inhibitor of β-catenin and the Wnt/β-catenin system, which are major survival pathways in cancer cells. CBY1 expression was induced by Tetrac and Tetrac NP.

In assay [3] the test system is GL261 tumor cells. Nature of the assay: GL261 apoptosis and necrosis with or without 5 Gy x-rays. Format: cell-based, murine. The settings on record: Tetrac 2 μM, T-NP 0.2 μM. The method, then: FIG. 61 is a comparison of apoptosis on Tetrac (2 μM) and T-NP (0.2 μM) treated GL261 cells that were or were not exposed to 5 Gy x-rays. The effects of Tetrac and T-NP plus 5 Gy of x-rays on apoptosis appear to be supra-additive.
Apoptotic cells were identified using TUNEL staining (Terminal deoxynucleotidyl transferase dUTP nick end labeling (TUNEL)) (staining kit obtained from Oncor, Gaithersberg, Md.; ApoTag) (See Gavrieli et al., J. Cell. Biol. 1992. 119:493-501). The staining procedures were carried out as instructed by the manufacturer. Gill's hematoxylin was used as a counterstain to discriminate negative cells (purple) from positive cells (brown). Negative controls were performed by omitting the terminal deoxynucleotidyl transferase enzyme. […]
To perform FCM, a total of 10^6 adherent cells were trypsinized and washed once in ambient temperature PBS. […] Cells were left overnight at 4° C. in the dark and were then analyzed on a Coulter fluorescence-activated cell sorter (Coulter Electronics, Hialeah, Fla.). Cells were excited with a single 488 nm argon laser and the resulting fluorescence was detected using a 585 nm filter. Linear red-orange fluorescence (FL3) data were collected in list format and 10,000 events were collected. The distribution of cells within the cell cycle (sub-G1, G1, S, and G2 M phases) was determined using a Coulter software program.

Molecules are shown by their SMILES.

Turning to `O=C(O)Cc1cc(I)c(Oc2cc(I)c(O)c(I)c2)c(I)c1` [Tetrac, tetraiodothyroacetic acid], in assay [1], the “doxorubicin-induced proliferation arrest, SA-β-Gal and cell death” value is recorded as “dramatically enhanced”. Also, in assay [2] (MDA-MB-231), the BCL2L14 expression result is “not a significant stimulatory action”, the CASP2 expression entry is recorded as “not a significant stimulatory action”, the CBY1 expression result is reported as “significantly increased” and the MCL1 expression entry is reported as “did not significantly affect”. For the same compound, in assay [2] (MDA-MB-231), the THBS1 expression result is listed as “upregulation” and the XIAP expression result is “also acted on XIAP”. Further, in assay [2] (MDA-MB-231 (FIG. 50)), the EGFR expression entry is “ineffective”. Further, the “effect on apoptosis combined with 5 Gy of x-rays” value in assay [3] is reported as “supra-additive”. Besides, the “effect on necrosis combined with x-rays” value in assay [3] (120 hours) is on record as “essentially additive”.
